Laboratory results from ChEMBL document CHEMBL4138123, “Design, synthesis and biological evaluation of novel pyrazolochalcones as potential modulators of PI3K/Akt/mTOR pathway and inducers of apoptosis in breast cancer cells” (Eur J Med Chem, 2017).

Legend:
DU-145 = assay: Cytotoxicity against human DU145 cells assessed as cell growth at 10 uM after 48 hrs by sulforhodamine B assay relative to control; type: functional; conditions: DU-145, 48 h, read-out: Activity
KM12 [1] = assay: Cytotoxicity against human KM12 cells assessed as cell growth at 1 uM after 48 hrs by sulforhodamine B assay relative to control; type: functional; conditions: KM12, 48 h, read-out: Activity
T47D = assay: Cytotoxicity against human T47D cells assessed as cell growth at 10 uM after 48 hrs by sulforhodamine B assay relative to control; type: functional; conditions: read-out: Activity
UO-31 = assay: Cytotoxicity against human UO31 cells assessed as cell growth at 10 uM after 48 hrs by sulforhodamine B assay relative to control; type: functional; conditions: UO-31, 48 h, read-out: Activity
MCF7 [2] = assay: Cytotoxicity against human MCF7 cells assessed as cell growth at 10 uM after 48 hrs by sulforhodamine B assay relative to control; type: functional; conditions: MCF7, 48 h, read-out: Activity
SK-OV-3 [3] = assay: Cytotoxicity against human SKOV3 cells assessed as cell growth at 1 uM after 48 hrs by sulforhodamine B assay relative to control; type: functional; conditions: SK-OV-3, 48 h, read-out: Activity
MDA-MB-468 [4] = assay: Cytotoxicity against human MDA-MB-468 cells assessed as cell growth at 10 uM after 48 hrs by sulforhodamine B assay relative to control; type: functional; conditions: MDA-MB-468, 48 h, read-out: Activity
RXF 393 [5] = assay: Cytotoxicity against human RXF393 cells assessed as cell growth at 0.1 uM after 48 hrs by sulforhodamine B assay relative to control; type: functional; conditions: RXF 393, 48 h, read-out: Activity
Malme-3M [6] = assay: Cytotoxicity against human MALME-3M cells assessed as cell growth at 0.01 uM after 48 hrs by sulforhodamine B assay relative to control; type: functional; conditions: read-out: Activity
KM12 [7] = assay: Cytotoxicity against human KM12 cells assessed as cell growth at 100 uM after 48 hrs by sulforhodamine B assay relative to control; type: functional; conditions: KM12, 48 h, read-out: Activity
HCT-116 [8] = assay: Cytotoxicity against human HCT116 cells assessed as cell growth at 0.1 uM after 48 hrs by sulforhodamine B assay relative to control; type: functional; conditions: HCT-116, 48 h, read-out: Activity
SNB-19 [9] = assay: Cytotoxicity against human SNB19 cells assessed as cell growth at 1 uM after 48 hrs by sulforhodamine B assay relative to control; type: functional; conditions: SNB-19, 48 h, read-out: Activity
Malme-3M [10] = assay: Cytotoxicity against human MALME-3M cells assessed as cell growth at 100 uM after 48 hrs by sulforhodamine B assay relative to control; type: functional; conditions: read-out: Activity
COLO 205 [11] = assay: Cytotoxicity against human COLO205 cells assessed as cell growth at 10 uM after 48 hrs by sulforhodamine B assay relative to control; type: functional; conditions: COLO 205, 48 h, read-out: Activity
K562 = assay: Cytotoxicity against human K562 cells assessed as cell growth at 1 uM after 48 hrs by sulforhodamine B assay relative to control; type: functional; conditions: K562, 48 h, read-out: Activity
RXF 393 [12] = assay: Cytotoxicity against human RXF393 cells assessed as cell growth at 100 uM after 48 hrs by sulforhodamine B assay relative to control; type: functional; conditions: RXF 393, 48 h, read-out: Activity
KM12 [13] = assay: Cytotoxicity against human KM12 cells assessed as cell growth at 0.01 uM after 48 hrs by sulforhodamine B assay relative to control; type: functional; conditions: KM12, 48 h, read-out: Activity
NCI/ADR-RES [14] = assay: Cytotoxicity against human NCI/ADR-RES cells assessed as cell growth at 100 uM after 48 hrs by sulforhodamine B assay relative to control; type: functional; conditions: read-out: Activity
COLO 205 [15] = assay: Cytotoxicity against human COLO205 cells assessed as growth inhibition after 48 hrs by sulforhodamine B assay; type: functional; conditions: COLO 205, 48 h
MDA-MB-468 [16] = assay: Cytotoxicity against human MDA-MB-468 cells assessed as cell growth at 0.1 uM after 48 hrs by sulforhodamine B assay relative to control; type: functional; conditions: MDA-MB-468, 48 h, read-out: Activity
MCF7 [17] = assay: Cytotoxicity against human MCF7 cells assessed as growth inhibition after 48 hrs by MTT assay; type: functional, cell-based; conditions: MCF7, 48 h
NCI/ADR-RES [18] = assay: Cytotoxicity against human NCI/ADR-RES cells assessed as cell growth at 0.1 uM after 48 hrs by sulforhodamine B assay relative to control; type: functional; conditions: read-out: Activity
LOX IMVI = assay: Cytotoxicity against human LOXIMVI cells assessed as cell growth at 10 uM after 48 hrs by sulforhodamine B assay relative to control; type: functional; conditions: read-out: Activity
SK-OV-3 [19] = assay: Cytotoxicity against human SKOV3 cells assessed as growth inhibition after 48 hrs by sulforhodamine B assay; type: functional; conditions: SK-OV-3, 48 h
MDA-MB-435 = assay: Cytotoxicity against human MDA-MB-435 cells assessed as cell growth at 10 uM after 48 hrs by sulforhodamine B assay relative to control; type: functional; conditions: MDA-MB-435, 48 h, read-out: Activity
SR = assay: Cytotoxicity against human SR cells assessed as cell growth at 100 uM after 48 hrs by sulforhodamine B assay relative to control; type: functional; conditions: read-out: Activity
SN12C = assay: Cytotoxicity against human SN12C cells assessed as cell growth at 10 uM after 48 hrs by sulforhodamine B assay relative to control; type: functional; conditions: read-out: Activity
NCI-H522 = assay: Cytotoxicity against human NCI-H522 cells assessed as growth inhibition after 48 hrs by sulforhodamine B assay; type: functional; conditions: NCI-H522, 48 h
HCT-116 [20] = assay: Cytotoxicity against human HCT116 cells assessed as cell growth at 1 uM after 48 hrs by sulforhodamine B assay relative to control; type: functional; conditions: HCT-116, 48 h, read-out: Activity
SNB-19 [21] = assay: Cytotoxicity against human SNB19 cells assessed as cell growth at 100 uM after 48 hrs by sulforhodamine B assay relative to control; type: functional; conditions: SNB-19, 48 h, read-out: Activity
U-251 = assay: Cytotoxicity against human U251 cells assessed as cell growth at 0.01 uM after 48 hrs by sulforhodamine B assay relative to control; type: functional; conditions: U-251, 48 h, read-out: Activity
NCI-H460 = assay: Cytotoxicity against human NCI-H460 cells assessed as cell growth at 100 uM after 48 hrs by sulforhodamine B assay relative to control; type: functional; conditions: NCI-H460, 48 h, read-out: Activity
BT-549 = assay: Cytotoxicity against human BT549 cells assessed as cell growth at 1 uM after 48 hrs by sulforhodamine B assay relative to control; type: functional; conditions: BT-549, 48 h, read-out: Activity
UACC-257 = assay: Cytotoxicity against human UACC257 cells assessed as growth inhibition after 48 hrs by sulforhodamine B assay; type: functional; conditions: UACC-257, 48 h
A549 = assay: Cytotoxicity against human A549/ATCC cells assessed as growth inhibition after 48 hrs by sulforhodamine B assay; type: functional; conditions: A549, 48 h
RPMI-8226 = assay: Cytotoxicity against human RPMI8226 cells assessed as cell growth at 100 uM after 48 hrs by sulforhodamine B assay relative to control; type: functional; conditions: RPMI-8226, 48 h, read-out: Activity

## COc1cc(-c2cc(/C=C/C(=O)c3ccc4c(c3)OCO4)[nH]n2)cc(OC)c1OC
DU-145
  growth at 10 µM: -2%
KM12 [1]
  growth at 1 µM: 89%
T47D
  growth at 10 µM: 6%
UO-31
  growth at 10 µM: -29%
MCF7 [2]
  growth at 10 µM: -1%
SK-OV-3 [3]
  growth at 1 µM: 102%
MDA-MB-468 [4]
  growth at 10 µM: -88%
RXF 393 [5]
  growth at 0.1 µM: 89%
Malme-3M [6]
  growth at 0.01 µM: 93%
KM12 [7]
  growth at 100 µM: 3%
HCT-116 [8]
  growth at 0.1 µM: 101%
SNB-19 [9]
  growth at 1 µM: 84%
Malme-3M [10]
  growth at 100 µM: -56%
COLO 205 [11]
  growth at 10 µM: -66%
K562
  growth at 1 µM: 102%
RXF 393 [12]
  growth at 100 µM: -89%
KM12 [13]
  growth at 0.01 µM: 96%
NCI/ADR-RES [14]
  growth at 100 µM: 1%
COLO 205 [15]
  LC50: 7.92 µM
  TGI: 3.85 µM
MDA-MB-468 [16]
  growth at 0.1 µM: 90%
MCF7 [17]
  IC50: 0.9 µM
NCI/ADR-RES [18]
  growth at 0.1 µM: 95%
LOX IMVI
  growth at 10 µM: -67%
SK-OV-3 [19]
  LC50: > 100 µM
  TGI: 26.1 µM
MDA-MB-435
  growth at 10 µM: -15%
SR
  growth at 100 µM: 2%
SN12C
  growth at 10 µM: 22%
NCI-H522
  LC50: 5.37 µM
  TGI: 2.35 µM
HCT-116 [20]
  growth at 1 µM: 90%
SNB-19 [21]
  growth at 100 µM: 6%
U-251
  growth at 0.01 µM: 96%
NCI-H460
  growth at 100 µM: -34%
BT-549
  growth at 1 µM: 92%
UACC-257
  LC50: > 100 µM
  TGI: 40.3 µM
A549
  LC50 (concentration giving 50% net cell kill): > 100 µM
  TGI: > 100 µM
RPMI-8226
  growth at 100 µM: -37%

## COc1ccc(C(=O)/C=C/c2cc(-c3cc(OC)c(OC)c(OC)c3)n[nH]2)cc1OC
DU-145
  growth at 10 µM: -89%
KM12 [1]
  growth at 1 µM: 54%
T47D
  growth at 10 µM: -42%
UO-31
  growth at 10 µM: -97%
MCF7 [2]
  growth at 10 µM: -76%
SK-OV-3 [3]
  growth at 1 µM: 100%
MDA-MB-468 [4]
  growth at 10 µM: -87%
RXF 393 [5]
  growth at 0.1 µM: 100%
Malme-3M [6]
  growth at 0.01 µM: 95%
KM12 [7]
  growth at 100 µM: -75%
HCT-116 [8]
  growth at 0.1 µM: 100%
SNB-19 [9]
  growth at 1 µM: 73%
Malme-3M [10]
  growth at 100 µM: -81%
COLO 205 [11]
  growth at 10 µM: -93%
K562
  growth at 1 µM: 75%
RXF 393 [12]
  growth at 100 µM: -98%
KM12 [13]
  growth at 0.01 µM: 97%
NCI/ADR-RES [14]
  growth at 100 µM: -40%
COLO 205 [15]
  LC50: 5.92 µM
  TGI: 3.21 µM
MDA-MB-468 [16]
  growth at 0.1 µM: 89%
MCF7 [17]
  IC50: 0.51 µM
NCI/ADR-RES [18]
  growth at 0.1 µM: 95%
LOX IMVI
  growth at 10 µM: -93%
SK-OV-3 [19]
  LC50: 27.6 µM
  TGI: 7.82 µM
MDA-MB-435
  growth at 10 µM: -92%
SR
  growth at 100 µM: 3%
SN12C
  growth at 10 µM: -82%
NCI-H522
  LC50: 0.825 µM
  TGI: 0.39 µM
HCT-116 [20]
  growth at 1 µM: 47%
SNB-19 [21]
  growth at 100 µM: -95%
U-251
  growth at 0.01 µM: 96%
NCI-H460
  growth at 100 µM: -65%
BT-549
  growth at 1 µM: 76%
UACC-257
  LC50: 5.37 µM
  TGI: 2.83 µM
A549
  LC50 (concentration giving 50% net cell kill): 15.7 µM
  TGI: 4.59 µM
RPMI-8226
  growth at 100 µM: -41%
